Measured values published in ChEMBL document CHEMBL1143179 (Bioorg Med Chem Lett, 2008).
Calls of active or inactive are those of the source. The calls are words filed in the database; no cut-off is given here.

What was measured:
[1] = target: T1, Prostaglandin E2 receptor EP2 subtype (Homo sapiens, UniProt P43116); experiment: Displacement of [3H]PGE2 from human EP2 receptor
[2] = target: T1, Prostaglandin E2 receptor EP2 subtype; experiment: Agonist activity at human EP2 receptor by cAMP assay; type: functional
[3] = target: T2, Prostaglandin E2 receptor EP4 subtype (Homo sapiens, UniProt P35408); experiment: Displacement of […] from human EP4 receptor
[4] = target: T2, Prostaglandin E2 receptor EP4 subtype; experiment: Agonist activity at human EP4 receptor by cAMP assay; type: functional
Mus musculus [5] = experiment: Induction of ovulation in sc dosed CD1 mouse; type: functional
Mus musculus [6] = experiment: Induction of ovulation in po dosed CD1 mouse; type: functional
Cavia porcellus [7] = organism: Cavia porcellus; experiment: Inhibition of methacholine-induced bronchoconstriction in Duncan-Hartley guinea pig; type: functional
Cavia porcellus [8] = experiment: Inhibition of methacholine-induced bronchoconstriction in Duncan-Hartley guinea pig at >3 ug/kg; type: functional
[9] = Drug distribution in rat at 10 mg/kg, iv; type: ADME, organism-based; parameters: dose 10 mg/kg, route intravenous; conditions: in vivo, read-out: Drug uptake
Rattus norvegicus [10] = experiment: AUC (0 to 48 hrs) in rat at 10 mg/kg, iv; type: ADME, organism-based, Plasma; parameters: time < 48 hr, dose 10 mg/kg, route intravenous; conditions: in vivo
Rattus norvegicus [11] = experiment: AUC (0 to 48 hrs) in rat at 10 mg/kg, sc; type: ADME, organism-based, Plasma; parameters: time < 48 hr, dose 10 mg/kg, route subcutaneous; conditions: in vivo
Rattus norvegicus [12] = experiment: AUC (0 to 48 hrs) in rat at 10 mg/kg, po; type: ADME, organism-based, Plasma; parameters: time < 48 hr, dose 10 mg/kg, route oral; conditions: in vivo
[13] = Half life in rat at 10 mg/kg, iv; type: ADME, organism-based; parameters: dose 10 mg/kg, route intravenous; conditions: in vivo
[14] = Half life in rat at 10 mg/kg, sc; type: ADME, organism-based; parameters: dose 10 mg/kg, route subcutaneous; conditions: in vivo
[15] = Half life in rat at 10 mg/kg, po; type: ADME, organism-based; parameters: dose 10 mg/kg, route oral; conditions: in vivo
[16] = Tmax in rat at 10 mg/kg, iv; type: ADME, organism-based; parameters: dose 10 mg/kg, route intravenous; conditions: in vivo
[17] = Tmax in rat at 10 mg/kg, sc; type: ADME, organism-based; parameters: dose 10 mg/kg, route subcutaneous; conditions: in vivo
[18] = Tmax in rat at 10 mg/kg, po; type: ADME, organism-based; parameters: dose 10 mg/kg, route oral; conditions: in vivo
[19] = Clearance in rat at 10 mg/kg; type: ADME, organism-based; parameters: dose 10 mg/kg; conditions: in vivo
Rattus norvegicus [20] = experiment: Oral bioavailability in rat at 10 mg/kg; type: ADME, organism-based; conditions: in vivo
Rattus norvegicus [21] = experiment: Bioavailability in rat at 10 mg/kg, sc; type: ADME, organism-based; conditions: in vivo

T2 sequence (P35408 whole entry): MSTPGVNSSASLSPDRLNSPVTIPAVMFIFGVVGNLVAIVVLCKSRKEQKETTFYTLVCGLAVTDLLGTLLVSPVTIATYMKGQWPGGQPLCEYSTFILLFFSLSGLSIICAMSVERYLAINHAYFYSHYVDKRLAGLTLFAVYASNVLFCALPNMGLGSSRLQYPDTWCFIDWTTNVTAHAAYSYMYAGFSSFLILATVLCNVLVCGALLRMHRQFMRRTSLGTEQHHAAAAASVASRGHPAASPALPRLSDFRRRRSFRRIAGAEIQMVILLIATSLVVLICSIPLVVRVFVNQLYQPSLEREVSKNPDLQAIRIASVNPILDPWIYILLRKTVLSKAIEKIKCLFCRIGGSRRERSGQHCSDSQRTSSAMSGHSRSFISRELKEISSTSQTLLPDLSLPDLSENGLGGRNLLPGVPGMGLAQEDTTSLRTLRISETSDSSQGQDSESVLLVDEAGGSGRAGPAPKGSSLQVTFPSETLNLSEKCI
T1 sequence (P43116 whole entry): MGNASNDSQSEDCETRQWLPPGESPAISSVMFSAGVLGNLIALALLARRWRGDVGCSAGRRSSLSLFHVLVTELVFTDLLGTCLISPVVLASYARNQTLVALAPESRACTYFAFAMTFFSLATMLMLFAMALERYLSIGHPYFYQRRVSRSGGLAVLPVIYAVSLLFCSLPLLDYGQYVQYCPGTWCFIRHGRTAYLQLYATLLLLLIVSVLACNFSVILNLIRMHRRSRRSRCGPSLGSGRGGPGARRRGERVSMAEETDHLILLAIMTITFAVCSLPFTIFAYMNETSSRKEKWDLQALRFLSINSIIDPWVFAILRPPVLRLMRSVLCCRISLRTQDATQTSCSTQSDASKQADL

Ki [1] [nM] | EC50 [2] [nM] | Ki [3] [nM] | EC50 [4] [nM] | SMILES | other results
141 | 19 | 9 | 3 | CCCCC(C)(C)[C@H](O)/C=C/[C@H]1CCC(=O)N1CCc1ccc(C(=O)O)cc1 | –
> 10000 | – | 490 | – | CC[C@H](O)/C=C/[C@H]1CCC(=O)N1CCc1ccc(C(=O)O)cc1 | –
25000 | – | 27 | – | CCC[C@H](O)/C=C/[C@H]1CCC(=O)N1CCc1ccc(C(=O)O)cc1 | –
1000 | 250 | 0.02 | 0.03 | O=C(O)c1ccc(CCN2C(=O)CC[C@@H]2/C=C/[C@@H](O)Cc2cccc(Cl)c2)cc1 | Activity (Mus musculus [5]): inactive
54 | – | – | – | CCCCCC[C@H](O)/C=C/[C@H]1CCC(=O)N1CCc1ccc(C(=O)O)cc1 | –
21 | 3 | 2 | 0.3 | CCCCC1([C@@H](O)/C=C/[C@H]2CCC(=O)N2CCc2ccc(C(=O)O)cc2)CCC1 | Activity (Mus musculus [5]): inactive; ED50 (Mus musculus [6]): 1 mg/kg
2540 | 434 | – | 0.03 | O=C(O)c1ccc(CCN2C(=O)CC[C@@H]2/C=C/[C@@H](O)Cc2ccccc2)cc1 | –
– | 15 | – | 0.02 | CCCCC[C@H](O)/C=C/[C@H]1CCC(=O)N1CCc1ccc(C(=O)O)cc1 | ED50 (Cavia porcellus [7]): 0.0017 mg/kg; Inhibition (Cavia porcellus [8]): >50%; Vd [9]: 42.4 L/kg; AUC (Rattus norvegicus [10]): 18095.3 ng·h/mL; AUC (Rattus norvegicus [11]): 35175.6 ng·h/mL; AUC (Rattus norvegicus [12]): 14657.8 ng·h/mL; half-life [13]: 14.3 h; half-life [14]: 31.6 h; half-life [15]: 20.8 h; Tmax [16]: 4.98 min; Tmax [17]: 0.25 h; Tmax [18]: 4 h; clearance [19]: 9.17 mL/min/kg; F (Rattus norvegicus [20]): 33%; F (Rattus norvegicus [21]): 82%
– | – | – | – | CCCC1([C@H](O)C/C=C/[C@H]2[C@H](O)CC(=O)[C@@H]2CCCCCCC(=O)OC)CCC1 | Activity (Mus musculus [6]): inactive
425 | 80 | 1 | 0.04 | CCCC[C@H](O)/C=C/[C@H]1CCC(=O)N1CCc1ccc(C(=O)O)cc1 | –
